{"source": "patent US7084155B2", "about": "“Chemokine receptor binding heterocyclic compounds” (AnorMED, priority 2000, dated 2006)", "format_in_all_cases": "cell-based", "key": {"HIV-1 BaL": {"system": "HIV-1 BaL", "assay": "Inhibition of HIV-1 BaL (CCR5 using) replication in PHA-stimulated PBMC's, viral p24 antigen expression", "settings": "Human immunodeficiency virus 1, BAL"}, "[1]": {"system": "SDF-1 induced Ca flux in SUP-T1 cells", "assay": "Inhibition of chemokine (SDF-1) induced Ca flux measured on a FLIPR", "settings": "Homo sapiens", "outline": "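Fluo-3-loaded SUP-T1 cells (3×10^5 per well) preincubated with compound for 10 min at 37° C in HBSS/20 mM Hepes/0.2% BSA, pH 7.4, then stimulated with SDF-1. Fluorescence read on a FLIPR for 4 min after a 20-second baseline.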"}, "HIV-1 NL4.3 or IIIB": {"system": "HIV-1 NL4.3 or IIIB", "assay": "Inhibition of HIV-1 (NL4.3 or IIIB, CXCR4 using) replication in MT-4 cells, MTT viability", "settings": "Human immunodeficiency virus 1, IIIB, MT4, concentration protecting 50% of virus-infected cells against viral cytopathicity", "outline": "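MT-4 cells infected at MOI 0.01 (100 × CCID50) with test compound at various concentrations, cytotoxicity run in parallel on uninfected cells. Viable cells quantified by MTT colorimetry after 5 days of proliferation. EC50 is the concentration protecting 50% of infected cells from viral cytopathicity.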"}}, "data": [{"smiles": "Oc1ccccc1CNCc1ccc(CN(Cc2nc3ccccc3[nH]2)C2CCCc3cccnc32)cc1", "note": "(stereo not drawn) [Example 68, N-(2-hydroxyphenylmethyl)-N′-(1H-benzimidazol-2-ylmethyl)-N′-(5,6,7,8-tetrahydro-8-quinolinyl)-1,4-benzenedimethanamine]", "values": [{"measurement": "EC50", "setting": "HIV-1 BaL", "result": "< 20", "unit": "µg/mL"}, {"measurement": "inhibition at 20 µg/mL", "setting": "[1]", "result": "> 20", "unit": "%"}, {"measurement": "EC50", "setting": "HIV-1 NL4.3 or IIIB", "result": "< 20", "unit": "µg/mL"}]}, {"smiles": "c1ccc(CNCc2ccc(CN[C@H]3CCCC[C@H]3NCc3ccccn3)cc2)nc1", "note": "[Example 134, N-(2-pyridinylmethyl)-N′-[cis-2-[(N-pyridin-2-ylmethyl)amino]cyclohexyl]-1,4-benzenedimethanamine]", "values": [{"measurement": "EC50", "setting": "HIV-1 BaL", "result": "< 20", "unit": "µg/mL"}, {"measurement": "inhibition at 20 µg/mL", "setting": "[1]", "result": "> 20", "unit": "%"}, {"measurement": "EC50", "setting": "HIV-1 NL4.3 or IIIB", "result": "< 20", "unit": "µg/mL"}]}]}
